In US20250120942A1, “BRAIN FUNCTION IMPROVING AGENT” (OSAKA UNIVERSITY, priority 2021, published 2025):

Legend:
[1] = system: mouse reared in long-term isolation; assay: Novel object recognition test after long-term administration in feed during isolated rearing (Test Example 4); format: in vivo, ddY mouse; conditions: MF powdery feed containing 7 mg/100 g for 5 weeks of isolation; FIG. 4(A),(B)
Experimental: The compound A was orally administered for a long time and the effect of preventing the onset of cognitive dysfunction caused by the long-term isolated rearing was examined.
3-weeks-old male ddY mice were purchased from Japan SLC, Inc. The mice were reared in the rearing chamber provided with air conditioner (under the condition that the temperature was 22° C.±1° C., the relative humidity was 50±10%, and the irradiation time was 12 hours (8:00 to 20:00)). The feeding method was that the commercially available MF powdery feed (manufactured by Oriental Yeast Co., ltd.) and tap water were taken freely. […]
After the long-term rearing of 5 weeks, the object cognitive function was evaluated by the same method as that described in Test Example 3 and the effect of preventing the onset of cognitive dysfunction by administering the compound A during the long-term rearing was examined.
From the results obtained, the mean (Mean) and the standard error (SEM) were calculated. The significant difference of exploratory time in each group was assessed by using Student's t-test and the significant differences between the control group and Vehicle group and between the administration group of compound A and Vehicle group of Discrimination index were assessed by using Turkey-Kramer's test. […]

[2] = system: extracellular acetylcholine in the cerebral cortex; assay: Amount of extracellular acetylcholine in mouse brain by in vivo microdialysis (Test Example 1); parameters: species or system ddY mouse; conditions: oral 30 mg/kg, FIG. 1
Experimental: The compound A, B, and C were administered orally to the mouse and the effect on the amount of extracellular acetylcholine in the brain was examined. The brain microdyalysis method using the mouse is proposed as a test for evaluating cognitive dysfunction including Alzheimer type dementia. The brain microdyalysis method is a system that can monitor the variation of extracellular neurotransmitter release in real time at the local parts in the brain while the test animals are moving freely without anesthesia.
7-weeks-old male ddY mice were purchased from Japan SLC, Inc. and subjected to the experiment after one week habituation period. The animals were reared in the rearing chamber provided with air conditioner (under the condition that the temperature was 22° C.±1° C., the relative humidity was 50±10%, and the irradiation time was 12 hours (8:00 to 20:00)). The feeding method was that the commercially available MF powdery feed (manufactured by Oriental Yeast Co., ltd.) and tap water were taken freely.
In the two days before the start of the experiment, the fixing operation of the guide cannula for inserting the dialysis probe in the mouse was conducted in advance. Under the deep anesthetized conditions, the guide cannula (depth 4 mm) (manufactured by Eicom Corp.,) was inserted in and fixed on cerebral cortex prefrontal area (which was 1.9 mm forward and 0.5 mm right side from the bregma and to which the depth from cranial surface was 0.8 mm). Buprenorphine (0.01 mg/kg manufactured by Sigma-Aldrich Japan) was administered to the mouse as analgesic after the operation. Each mouse was reared in the separate cage after the operation.
In the step of measuring extracellular acetylcholine in the brain, the dialysis probe (membrane length 3 mm) (manufactured by Eicom Corp.,) was inserted in the guide cannula and the Ringer's solution in the Japanese Pharmacopeia (containing NaCl (147.2 mM), KCl (4.0 mM), and CaCl2 (2.2 mM); manufactured by FUSO CHEMICAL CO., LTD.) was perfused at the flow velocity of 1 μL/min. The sample obtained by the perfusion was collected every 20 minutes and was immediately continuously automatically injected in the high-speed liquid chromatography/electrochemical detector (HPLC/ECD) system (manufactured by Eicom Corp., HTEC-500) together with the internal standard material (isopropylhomocholine, 250 fmol) and acetylcholine was measured under the condition described below.
• Column: Eicompak AC-GEL (2.0 mm; i.d.×150 mm) (manufactured by Eicom Corp.,) • Precolumn: PC-05-03 (3.0 mm; i.d.×40 mm) (manufactured by Eicom Corp.,) • Enzyme-immobilized column: AC-Enzympak (3.0 mm; i.d.) (manufactured by Eicom Corp.,) • Mobile Phase: 50 mM potassium hydrogen carbonate buffer containing 400 mg/L sodium decansulfonic acid and 134 μM EDTA (pH 8.3) • Flow Velocity: 150 μl/min. • Temperature of column: 33° C. • Applied voltage of ECD: +450 mV • Reference electrode: Ag/AgCl electrode • Work electrode: platinum electrode
The compound A prepared according to the procedure described in Manufacturing Example 1 was dissolved in 2.5% DMSO solution in advance to prepare for the test. […] The amount of the extracellular acetylcholine released was measured by the procedure described above in (a) Used animal and Rearing Procedure in real time for 120 minutes after the administration. The mouse in Vehicle group took only 2.5% DMSO solution orally in the same way and the amount of the extracellular acetylcholine was measured. […]

For `O=C1CC[C@H](Cc2cc(O)cc(O)c2)O1` [compound A, (R)-5-(3,5-dihydroxyphenyl)-γ-valerolactone], the “onset of cognitive dysfunction caused by long-term isolated rearing stress (exploratory time and Discrimination index)” value [1] was “significantly inhibited”, the “amount of extracellular acetylcholine in the cerebral cortex versus Vehicle group” value ([2]; 40 and 60 minutes after the administration) was “significant increase” and the “amount of extracellular acetylcholine in the cerebral cortex (ratio to basic released amount)” value ([2]; measured for 120 minutes after administration, compared with before administration) was “increased”.
